The results in this text go back to US8916712B2, “Compositions and methods for cytoprotection” (Board of Trustees of the University of Arkansas, priority 2007, dated 2014).

Data set [1] relates to U937 human promonocytic cells. To be noted: for Radioprotection / cytoprotection: 0-100 μM added immediately after irradiation, PI assay 24 hr. How it is done: To determine the radioprotective effects of Zn^2+-chelates, U937 human promonocytic cells (ATCC number CRL-1593.2) were irradiated with or without Zn^2+-chelates added to the cells before or after irradiation, and radiation-induced cell death was measured 24 hr later using a propidium iodide (PI) assay. Propidium iodide was added to the cells at a final concentration of 4 μM and incubated for 15 minutes. Fluorescence (which indicates dead cells) was measured at 530/645 nm, and fluorescence was measured again after cell lysis with Triton-100 (1%, v/v) for 20 minutes (to give an estimate of total cells). The background (no cells) was subtracted, and the percent of the radiation-induced cell death was computed.
Different concentrations (0-100 μM) of a compound were added to the cells, which were then irradiated with 50 Gy.
Human U937 cells were irradiated in vitro with 50 Gy and the compounds were added at different concentrations (0-100 μM) immediately after irradiation. […] Cell death was measured 24 hr after irradiation using a PI assay (as detailed above).

For data set [2], the target named is T1, rat serum DNase (predominantly rat DNase I) (Rattus norvegicus, UniProt P21704).
T1 construct: rat serum DNase (which is predominantly rat DNase I); from tissue; host or cells: rat serum
T1 sequence (P21704 23-284): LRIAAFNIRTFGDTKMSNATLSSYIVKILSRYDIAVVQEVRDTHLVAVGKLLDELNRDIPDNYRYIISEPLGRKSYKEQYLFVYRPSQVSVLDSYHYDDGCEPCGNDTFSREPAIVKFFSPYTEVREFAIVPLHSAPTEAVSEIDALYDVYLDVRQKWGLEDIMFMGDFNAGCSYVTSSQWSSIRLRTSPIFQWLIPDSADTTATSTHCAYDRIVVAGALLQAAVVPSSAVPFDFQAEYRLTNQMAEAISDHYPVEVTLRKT
The experiment in a line: Plasmid incision assay of endonuclease activity, rat serum DNase. It counts as biochemical. The following applies: 0, 100 or 200 μM; 1 hour at 37° C.; pBR322 plasmid DNA. How it is done:
(§1) Endonuclease activity was measured using a plasmid incision assay. Activity was measured in 20 μl samples containing 1 μg pBR322 plasmid DNA, 10 mM Tris-HCl, pH 7.7, 25 μg/ml bovine serum albumin V fraction, 0.5 mM dithiothreitol, 5 mM MgCl2, 2 mM CaCl2, and 2 μl endonuclease. After 1 hour incubation at 37° C., the reaction was stopped by the addition 5 μl 1% SDS, 100 mM EDTA. Digested DNA was then subjected to a 1% agarose gel electrophoresis at 7 V/cm for 1 hour at room temperature. The gel was stained in 0.5 μg/ml ethidium bromide solution for 20 minutes and photographed under […]. Scanning densitometer Fotodyne (Fotodyne Inc., Hartland, Wis.) was utilized to quantify the relative amount of endonuclease-treated plasmid DNA present in a covalently closed circular DNA (cccDNA), open circular DNA (ocDNA) or linear DNA (linDNA). One endonuclease unit was defined as the amount of enzyme required to convert 1 μg cccDNA to ocDNA and linDNA.
(§2) Recombinant DNase I and rat serum DNase (which is predominantly rat DNase I) were incubated with 0, 100, or 200 μM of a Zn^2+-chelate (i.e., Zn-3,5-diisopropylsalicylic acid (DIPS), Zn-gluconate, or Zn-glycinate), a ligand (i.e., DIPS, gluconic acid, or glycine, as negative controls), or ZnCl2 (as positive control).

Data set [3] addresses T2, recombinant human DNase I (Homo sapiens, UniProt P24855).
T2 construct: Recombinant DNase I was produced using a similar approach; made in house
T2 sequence (P24855 23-282): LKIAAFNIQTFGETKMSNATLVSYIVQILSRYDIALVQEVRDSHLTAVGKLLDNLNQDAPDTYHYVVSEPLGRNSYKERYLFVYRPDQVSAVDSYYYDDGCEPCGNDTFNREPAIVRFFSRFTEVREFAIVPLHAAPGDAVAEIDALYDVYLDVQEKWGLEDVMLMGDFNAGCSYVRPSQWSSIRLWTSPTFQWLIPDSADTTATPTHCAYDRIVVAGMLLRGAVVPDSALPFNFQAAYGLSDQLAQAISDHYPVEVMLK
The experiment in a line: Plasmid incision assay of endonuclease activity, recombinant DNase I. It counts as biochemical. To be noted: 0, 100 or 200 μM; 1 hour at 37° C.; pBR322 plasmid DNA. How it is done: It was hypothesized that Zn^2+-chelates of aminothiols could provide radioprotection via their direct inhibition of nucleases and their antioxidant properties (i.e., prevent nuclease induction and release). To test this hypothesis, the activity of Zn(II) chelates to inhibit nucleases was assayed in vitro. For this, DNase I and EndoG were cloned, recombinant nuclease were expressed and purified for the in vitro assay. Human and mouse mature EndoG cDNA was reverse transcribed by RT-PCR from either normal human breast epithelial HMEC cells (Clonetics, Walkersville, Md.) or immortalized mouse proximal tubule epithelial TKPTS cells (obtained from D. Elsa Bello-Reuss, University of Texas Medical Branch, Galveston). The plasmid for mature human EndoG (A49-K297) with a C-terminal histidine tag and mouse mature EndoG (A45-K294) with a C-terminal histidine tag were constructed by inserting coding cDNA into pET29b(+) (Novagen, San Diego, Calif.) and expressed in Escherichia coli BL21 (DE3) cells using standard procedures. Expression of the recombinant proteins was induced by IPTG. The expressed recombinant protein was purified by HisTrap FF crude Kit (GE Healthcare, Uppsala, Sweden) and stored in 20 mM Tris-HCl, ph 7.5, 0.5 M NaCl, 2 mM 2-mercaptoethanol, and 50% glycerol.
as §1, §2

Data set [4] concerns U937 cells. The data set can be described thus: Radiation-induced DNA fragmentation in U937 cells, TUNEL assay. It counts as cell-based, human. The following applies: added before 50 Gy; TUNEL 24 hr later. How it is done:
Female CD-1 mice (n=4) were irradiated with an 8 Gy dose and apoptotic endonuclease-mediated DNA fragmentation was measured in different organs 40 hours after irradiation. For this, tissue sections were subjected to terminal deoxynucleotidyl transferase mediated dUTP nick end labeling (TUNEL) staining with the In Situ Cell Death Detection Kit from Roche Diagnostics (Indianapolis, Ind.). After washing and counterstaining with 4,6-diamidino-2-phenylindole (DAPI) sections were mounted under coverslips using the Antifade kit (Molecular Probes; Eugene, Oreg.) and analyzed under an Axioskop-2 mot plus microscope (Carl Zeiss, Gottingen Germany) with green filter set #31001, red filter set #11010v2 and blue filter set #31000 from Chroma Technology Corp. (Rockingham, Vt.). Images and acquisitions were performed using digital camera AxioCam MRm (Carl Zeiss) and software Axiovision 3.1 (Carl Zeiss).
The ability of the Zn^2+-chelates to inhibit radiation-induced DNA fragmentation was also examined. U937 cells were exposed to amifostine (as a positive control) or Zn^2+—N-acetylcysteine (Zn-NAC), irradiated as described above, and DNA fragmentation and cell death were measured 24 hr later using a TUNEL assay, essentially as described in Example 1.

For data set [5], the system named is U937 cells. The data set can be described thus: Comet assay of U937 cells irradiated with 4 Gy. To be noted: 10 μM, 24 hr after irradiation. It counts as cell-based, human. How it is done:
Considering that the LD50/30 (i.e., the dose that […] in 50% of the animals at 30 days) for mice is approximately 8 Gy (Bichay et al., 1986, Strahlenther Onkol, 162(6):391-399), the 50 Gy dose used to irradiate the cells in the previous example was rather high. Thus, the Zn^2+-chelates were tested for radioprotection against a more physiological dose of radiation. The Zn^2+-chelates tested were Zn-NAC, Zn-captopril, Zn-2-propylthiazolidine-4-carboxylic acid (Zn-PTCA), and Zn-penacillamine. U937 cells were exposed to a Zn^2+-chelate (10 μM), irradiated with 4 Gy, and DNA fragmentation and apoptosis were measured using a single-cell gel electrophoresis assay (also known as Comet assay) 24 hr after irradiation. Alkaline or neutral Comet assays were performed using CometAssay™ kits from Trevigen (Gaithersburg, MC) according to the manufacturer's instructions. The slides were analyzed under an epifluorescense microscope using the Comet assay image analysis software (CometScore; TriTek, Sumerduck, Va.).

The nature of data set [6]: Trolox-Equivalent Antioxidant Capacity (TEAC) Assay. To be noted: for TEAC value, Chelate / TEAC value, Ligand: relative to Trolox standard assigned TEAC 1.00; for TEAC value, Chelate: zinc chelate of the named ligand.
Description: The antioxidant capacity of the zinc chelates was measured using the 6-hydroxy-2,5,7,8-tetramethylchroman-2-carboxylic acid (Trolox)-Equivalent Antioxidant Capacity (TEAC) Assay (Randox Laboratories Ltd., Antrim, United Kingdom). […] Antioxidant capacity was measured relative to the Trolox standard, which was assigned a TEAC value of 1.00.
For another data set, the system named is human U937 cells. The data set can be described thus: Radiation injury of U937 cells (4 Gy), chelates added before or at times after irradiation. It counts as cell-based. The following applies: added 30 minutes before, immediately after, or up to 4 hours after irradiation. How it is done: FRTL-5 thyroid cells (ATCC, catalog #CRL8305) were irradiated with 450 Gy without or with Zn^2+-chelates added before and/or after irradiation. […] In another experiment, Zn^2+-chelates (i.e., Zn-captopril, Zn-NAC, Zn-penicillamine, or Zn-PTCA) were added to human U937 cells either 30 minutes before, immediately after, or up to 4 hours after irradiation (4 Gy).

Where [7] appears, read: compound added before 50 Gy, Zn^2+-chelate 1-20 μM, PI assay 24 hr later.

Where two headings read alike, the source gives them in different places.

As to `[Cl-].[Cl-].[Zn+2]` [ZnCl2], the Radioprotection / cytoprotection entry in data set [1] (50 Gy) was “did not provide any radioprotection”. Moreover, the Cytotoxicity result in data set [1] (U937 cells, 0-100 μM, 50 Gy) is “rather cytotoxic”. Besides, the “Inhibition of serum DNase activity” value in data set [2] is listed as “inhibition”. Besides, the “Inhibition of DNase I activity” value in data set [3] is given as “inhibition”.
In the case of `NCCCNCCSP(=O)(O)O` [amifostine, Amifostine], in data set [1] (setting [7]), the Radiation-induced cell death result is listed as “inhibition”. Also, in the data set with U937 cells [4], the “Radiation-induced DNA fragmentation” value is “inhibited”. In addition, the “Visual comets (DNA degradation)” value in the data set on U937 cells [5] is on record as “absent”.
For the compound Zn^2+-Cysteine [Zn-Cysteine], the Radiation-induced cell death result in data set [1] was “inhibited”. Moreover, in data set [1] (50 Gy), the Radioprotection / cytoprotection result is on record as “significant cytoprotection”. The “TEAC value, Chelate” value in data set [6] amounted to 0.65.
In the case of `CC(=O)N[C@@H](CS)C(=O)O` [NAC, N-Acetylcysteine], in data set [1] (50 Gy), the Radioprotection / cytoprotection entry is recorded as “not cytoprotective”. For the same compound, in data set [6], the “TEAC value, Ligand” value was determined as 0.88.
Turning to `CC(S)C(=O)NCC(=O)O` (stereo not drawn) [MPG, N-(2-mercaptopropionyl)glycine], in data set [6], the “TEAC value, Ligand” value came out at 0.53.
In the case of `CC(C)c1cc(C(=O)O)c(O)c(C(C)C)c1` [DIPS, 3,5-diisopropylsalicylic acid], the “Inhibition of serum DNase activity” value in data set [2] is recorded as “no effect”. In addition, the “Inhibition of DNase I activity” value in data set [3] was “no effect”.
As for `NCCS` [Cysteamine], in data set [1] (setting [7]), the Radiation-induced cell death result is listed as “inhibition”. In addition, the “TEAC value, Ligand” value in data set [6] is 0.40.
Regarding zinc-penicillamine [Zn-Penicillamine], in data set [6], the “Antioxidant activity in TEAC assay” value is given as “strongest antioxidants” and the “TEAC value, Chelate” value is recorded as 2.05. The “Protection against radiation injury” value with human U937 cells is on record as “protected”.
Take `[Zn+2]` [Unchelated Zn^2+]: in data set [6], the “Antioxidant activity in TEAC assay” value is “no activity”.
Take `NCC(=O)[O-].NCC(=O)[O-].[Zn+2]` [Zn-glycinate]: the “Inhibition of serum DNase activity” value in data set [2] is reported as “inhibited”. Moreover, the “Inhibition of DNase I activity” value in data set [3] was “inhibited”.
As to `O=C(O)[C@H](O)[C@@H](O)[C@H](O)[C@H](O)CO` [gluconic acid], the “Inhibition of serum DNase activity” value in data set [2] is given as “no effect”. Also, in data set [3], the “Inhibition of DNase I activity” value is “no effect”.
Turning to `O=C([O-])[C@H](O)[C@@H](O)[C@H](O)[C@H](O)CO.O=C([O-])[C@H](O)[C@@H](O)[C@H](O)[C@H](O)CO.[Zn+2]` [Zn-gluconate], the “Inhibition of serum DNase activity” value in data set [2] is on record as “inhibited”. In data set [3], the “Inhibition of DNase I activity” value is listed as “inhibited”.
`C[C@H](CS)C(=O)N1CCC[C@H]1C(=O)O` [Captopril]: in data set [6], the “TEAC value, Ligand” value is on record as 0.90.
Take `N[C@@H](CS)C(=O)O` [Cysteine]: in data set [1] (50 Gy), the Radioprotection / cytoprotection result is recorded as “not cytoprotective”. For the same compound, the “TEAC value, Ligand” value in data set [6] worked out at 0.43.
Take “Zn—N-(2-mercaptopropionyl)glycine [Zn-MPG]”: the Radiation-induced cell death result in data set [1] (setting [7]) is on record as “inhibited”. In data set [6], the “TEAC value, Chelate” value was found to be 0.97.
Turning to zinc-captopril [Zn-Captopril], the “TEAC value, Chelate” value in data set [6] is 0.90. Also, the “Protection against radiation injury” value in the data set with human U937 cells is “protected”.
Turning to `NCC(=O)O` [glycine], in data set [2], the “Inhibition of serum DNase activity” value was “no effect”. Besides, the “Inhibition of DNase I activity” value in data set [3] is “no effect”.
For Zn^2+-Cysteamine [Zn-Cysteamine], the “Inhibition of cell death compared with that induced by cysteamine or amifostine” value in data set [1] (added before 50 Gy, PI assay) is given as “better”. In data set [1] (setting [7]), the Radiation-induced cell death result is recorded as “inhibited”. The “TEAC value, Chelate” value in data set [6] is reported as 0.87.
`CC(C)(S)[C@@H](N)C(=O)O` [Penicillamine]: in data set [6], the “Antioxidant activity in TEAC assay” value is recorded as “strongest antioxidants” and the “TEAC value, Ligand” value came to 1.54.
As to `CCCC1NC(C(=O)O)CS1.[Zn]` (stereo not drawn) [Zn-PTCA, zinc-2-n-propylthiazolidine-4-carboxylic acid], the “Protection against radiation injury” value with human U937 cells was “protected”.
